#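 Exposure lasted 48 hours, with cells grown in 96-well plates and compounds tested at five concentrations. GI50: concentration for 50% inhibition of growth. At the TGI there is no net growth.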
# What was measured:
# Assay in all cases: NCI anticancer screen, dose series, 48 h
# [1] = tested on: OVCAR-4 ovarian
# [2] = tested on: SF-295 CNS
# [3] = tested on: UACC-257 melanoma
# [4] = tested on: HCT-116 colon
# [5] = tested on: SW-620 colon
# [6] = tested on: RXF 393 renal
# [7] = tested on: SNB-19 CNS
# [8] = tested on: OVCAR-3 ovarian
# [9] = tested on: A549 NSCLC
# [10] = tested on: UACC-62 melanoma
# [11] = tested on: SK-OV-3 ovarian
# [12] = tested on: SN12C renal
# [13] = tested on: HS 578T breast
# [14] = tested on: SK-MEL-5 melanoma
# [15] = tested on: LOX IMVI melanoma
# [16] = tested on: OVCAR-8 ovarian
# [17] = tested on: M14 melanoma
# [18] = tested on: MALME-3M melanoma
# [19] = tested on: UO-31 renal
# [20] = tested on: SNB-75 CNS
# [21] = tested on: SF-539 CNS
# [22] = tested on: OVCAR-5 ovarian
# [23] = tested on: NCI-H522 lung
# [24] = tested on: BT-549 breast
# [25] = tested on: NCI-H226 lung
# [26] = tested on: HOP-62 NSCLC
# [27] = tested on: SK-MEL-2 melanoma
# [28] = tested on: MCF7 breast
# [29] = tested on: RPMI-8226 leukemia
# [30] = tested on: NCI/ADR-RES ovarian
# [31] = tested on: SR leukemia
# [32] = tested on: MOLT-4 leukemia
# [33] = tested on: HT29 colon
# [34] = tested on: A498 renal
# [35] = tested on: HL-60(TB) leukemia
# [36] = tested on: EKVX NSCLC
# [37] = tested on: ACHN renal
# [38] = tested on: CAKI-1 renal
# [39] = tested on: HCT-15 colon
# [40] = tested on: PC-3 prostate
# [41] = tested on: KM12 colon
# [42] = tested on: MDA-MB-231 breast
# [43] = tested on: 786-0 renal
# [44] = tested on: NCI-H460 lung
# [45] = tested on: DU-145 prostate
# [46] = tested on: HCC-2998 colon
# [47] = tested on: U251 CNS
# [48] = tested on: HOP-92 NSCLC
# [49] = tested on: TK-10 renal
# [50] = tested on: NCI-H23 lung
# [51] = tested on: SF-268 CNS
# [52] = tested on: MDA-MB-435
# [53] = tested on: SK-MEL-28 melanoma
# [54] = tested on: COLO 205 colon
# [55] = tested on: T-47D breast
structure (smiles),measurement,setting,value
O=S(=O)(Nc1ccc2ccccc2c1)N1CCCCC1,GI50,[1],15.6 µM
same,TGI,[1],50.1 µM
same,GI50,[2],2.4 µM
same,TGI,[2],15.2 µM
same,GI50,[3],10.1 µM
same,TGI,[3],24 µM
same,GI50,[4],9.94 µM
same,TGI,[4],23.4 µM
same,GI50,[5],5.7 µM
same,TGI,[5],20.7 µM
same,GI50,[6],5.58 µM
same,TGI,[6],19.7 µM
same,GI50,[7],18.4 µM
same,TGI,[7],> 100 µM
same,GI50,[8],4.71 µM
same,TGI,[8],16.7 µM
same,GI50,[9],11.9 µM
same,TGI,[9],38.1 µM
same,GI50,[10],8.7 µM
same,TGI,[10],22.2 µM
same,GI50,[11],8.93 µM
same,TGI,[11],37.4 µM
same,GI50,[12],13.2 µM
same,TGI,[12],29.1 µM
same,GI50,[13],11.9 µM
same,TGI,[13],33.6 µM
same,GI50,[14],8.33 µM
same,TGI,[14],21 µM
same,GI50,[15],9.97 µM
same,TGI,[15],24.6 µM
same,GI50,[16],19.6 µM
same,TGI,[16],57 µM
same,GI50,[17],8.94 µM
same,TGI,[17],25.5 µM
same,GI50,[18],14.5 µM
same,TGI,[18],34 µM
same,GI50,[19],6.87 µM
same,TGI,[19],22.9 µM
same,GI50,[20],2.38 µM
same,TGI,[20],20.7 µM
same,GI50,[21],10.5 µM
same,TGI,[21],24.9 µM
same,GI50,[22],19.5 µM
same,TGI,[22],43.7 µM
same,GI50,[23],2.49 µM
same,TGI,[23],8 µM
same,GI50,[24],13.8 µM
same,TGI,[24],28.4 µM
same,GI50,[25],14.8 µM
same,TGI,[25],33.2 µM
same,GI50,[26],3.93 µM
same,TGI,[26],18.7 µM
same,GI50,[27],9.85 µM
same,TGI,[27],23.6 µM
same,GI50,[28],9.55 µM
same,TGI,[28],88.9 µM
same,GI50,[29],17.8 µM
same,TGI,[29],75.5 µM
same,GI50,[30],4.09 µM
same,TGI,[30],22.2 µM
same,GI50,[31],4.15 µM
same,TGI,[31],44.6 µM
same,GI50,[32],7.21 µM
same,TGI,[32],58 µM
same,GI50,[33],4.87 µM
same,TGI,[33],18.9 µM
same,GI50,[34],3.33 µM
same,TGI,[34],15.7 µM
same,GI50,[35],9.31 µM
same,TGI,[35],43.2 µM
same,GI50,[36],7.99 µM
same,TGI,[36],41 µM
same,GI50,[37],18.1 µM
same,TGI,[37],60.9 µM
same,GI50,[38],1.81 µM
same,TGI,[38],7.97 µM
same,GI50,[39],8 µM
same,TGI,[39],35.2 µM
same,GI50,[40],13.1 µM
same,TGI,[40],41.5 µM
same,GI50,[41],4.21 µM
same,TGI,[41],17.2 µM
same,GI50,[42],10.1 µM
same,TGI,[42],25 µM
same,GI50,[43],13.6 µM
same,TGI,[43],30 µM
same,GI50,[44],10.1 µM
same,TGI,[44],23.3 µM
same,GI50,[45],12.1 µM
same,TGI,[45],30.3 µM
same,GI50,[46],8.35 µM
same,TGI,[46],22.2 µM
same,GI50,[47],12 µM
same,TGI,[47],26.7 µM
same,GI50,[48],5.42 µM
same,TGI,[48],20.4 µM
same,GI50,[49],12.7 µM
same,TGI,[49],32.1 µM
same,GI50,[50],12.2 µM
same,TGI,[50],34 µM
same,GI50,[51],11.7 µM
same,TGI,[51],28.8 µM
same,GI50,[52],1.91 µM
same,TGI,[52],10.8 µM
same,GI50,[53],12 µM
same,TGI,[53],28 µM
same,GI50,[54],9.36 µM
same,TGI,[54],25.3 µM
same,GI50,[55],11 µM
same,TGI,[55],45.8 µM

# — PubChem BioAssay (NCI)
